Results from US11919901B2 (Syndax Pharmaceuticals, Inc., priority 2021, dated 2024).

System: MV4-11 cells
Experiment: Cell proliferation assay MV4;11 (CellTiter-Glo, 72 hours)
Assay type: cell-based
Details: Homo sapiens; MV4;11 leukemia cell line, 72 hours; read-out: MV4; 11 IC50
Procedure, shortened: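 Luminescent CellTiter-Glo readout after 72 h culture, 37 °C, 5% CO2, expressed relative to vehicle-treated wells, with maximal inhibition taken at the highest dose. MLL-rearranged MV4-11 leukemia cells; final compound range 0.632 to 2000 nM in eight steps.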

Compound | IC50 [nM]
CCN(C(=O)c1cc(F)ccc1Oc1cncnc1N1CC2(CCN(C[C@@H]3CC[C@@H](NS(=O)(=O)c4ccc(C)cc4)CO3)CC2)C1)C(C)C [Example 55, N-Ethyl-5-fluoro-N-isopropyl-2-((4-(7-(((2S,5R)-5-((4-methylphenyl)sulfonamido)tetrahydro-2H-pyran-2-yl)methyl)-2,7-diazaspiro[3.5]nonan-2-yl)pyrimidin-5-yl)oxy)benzamide] | < 100
CCN(C(=O)c1cc(F)ccc1Oc1cncnc1N1CC2(CCN(C[C@@H]3CC[C@@H](NS(=O)(=O)c4ccccc4C)CO3)CC2)C1)C(C)C [Example 56, N-Ethyl-5-fluoro-N-isopropyl-2-((4-(7-(((2S,5R)-5-((2-methylphenyl)sulfonamido)tetrahydro-2H-pyran-2-yl)methyl)-2,7-diazaspiro[3.5]nonan-2-yl)pyrimidin-5-yl)oxy)benzamide] | < 100
CCN(C(=O)c1cc(F)ccc1Oc1cncnc1N1CC2(CCN(C[C@@H]3CC[C@@H](NS(=O)(=O)c4cccc(Cl)c4)CO3)CC2)C1)C(C)C [Example 57, 2-((4-(7-(((2S,5R)-5-((3-Chlorophenyl)sulfonamido)tetrahydro-2H-pyran-2-yl)methyl)-2,7-diazaspiro[3.5]nonan-2-yl)pyrimidin-5-yl)oxy)-N-ethyl-5-fluoro-N-isopropylbenzamide] | < 100
CCN(C(=O)c1cc(F)ccc1Oc1cncnc1N1CC2(CCN(C[C@@H]3CC[C@@H](NS(=O)(=O)c4ccccn4)CO3)CC2)C1)C(C)C [Example 58, N-ethyl-5-fluoro-N-isopropyl-2-((4-(7-(((2S,5R)-5-(pyridine-2-sulfonamido)tetrahydro-2H-pyran-2-yl)methyl)-2,7-diazaspiro[3.5]nonan-2-yl)pyrimidin-5-yl)oxy)benzamide] | < 100
CCN(C(=O)c1cc(F)ccc1Oc1cncnc1N1CC2(CCN(C[C@@H]3CC[C@@H](NS(=O)(=O)c4ccccc4Cl)CO3)CC2)C1)C(C)C [Example 59, 2-((4-(7-(((2S,5R)-5-((2-Chlorophenyl)sulfonamido)tetrahydro-2H-pyran-2-yl)methyl)-2,7-diazaspiro[3.5]nonan-2-yl)pyrimidin-5-yl)oxy)-N-ethyl-5-fluoro-N-isopropylbenzamide] | < 100
CCN(C(=O)c1cc(F)ccc1Oc1cncnc1N1CC2(CCN(C[C@@H]3CC[C@@H](NS(=O)(=O)c4cccc(C)c4)CO3)CC2)C1)C(C)C [Example 60, N-ethyl-5-fluoro-N-isopropyl-2-((4-(7-(((2S,5R)-5-((3-methylphenyl)sulfonamido)tetrahydro-2H-pyran-2-yl)methyl)-2,7-diazaspiro[3.5]nonan-2-yl)pyrimidin-5-yl)oxy)benzamide] | < 100
CCN(C(=O)c1cc(F)ccc1Oc1cncnc1N1CC2(CCN(C[C@@H]3CC[C@@H](NS(=O)(=O)c4ccc(Cl)cc4)CO3)CC2)C1)C(C)C [Example 61, 2-((4-(7-(((2S,5R)-5-((4-Chlorophenyl)sulfonamido)tetrahydro-2H-pyran-2-yl)methyl)-2,7-diazaspiro[3.5]nonan-2-yl)pyrimidin-5-yl)oxy)-N-ethyl-5-fluoro-N-isopropylbenzamide] | < 100
CCN(C(=O)c1cc(F)ccc1Oc1cncnc1N1CC2(CCN(C[C@@H]3CC[C@@H](NS(=O)(=O)c4ccc(OC)cc4)CO3)CC2)C1)C(C)C [Example 62, N-Ethyl-5-fluoro-N-isopropyl-2-((4-(7-(((2S,5R)-5-((4-methoxyphenyl)sulfonamido)tetrahydro-2H-pyran-2-yl)methyl)-2,7-diazaspiro[3.5]nonan-2-yl)pyrimidin-5-yl)oxy)benzamide] | < 100
CCN(C(=O)c1cc(F)ccc1Oc1cncnc1N1CC2(CCN(C[C@@H]3CC[C@@H](NS(=O)(=O)c4cccnc4)CO3)CC2)C1)C(C)C [Example 63, N-Ethyl-5-fluoro-N-isopropyl-2-((4-(7-(((2S,5R)-5-(pyridine-3-sulfonamido)tetrahydro-2H-pyran-2-yl)methyl)-2,7-diazaspiro[3.5]nonan-2-yl)pyrimidin-5-yl)oxy)benzamide] | < 100
CCN(C(=O)c1cc(F)ccc1Oc1cncnc1N1CC2(CCN(C[C@@H]3CC[C@@H](NS(=O)(=O)N4CCOCC4)CO3)CC2)C1)C(C)C [Example 64, N-Ethyl-5-fluoro-N-isopropyl-2-((4-(7-(((2S,5R)-5-(morpholine-4-sulfonamido)tetrahydro-2H-pyran-2-yl)methyl)-2,7-diazaspiro[3.5]nonan-2-yl)pyrimidin-5-yl)oxy)benzamide] | < 100
CCN(C(=O)c1cc(F)ccc1Oc1cncnc1N1CC2(CCN(C[C@@H]3CC[C@@H](NS(=O)(=O)c4ccccc4OC)CO3)CC2)C1)C(C)C [Example 65, N-Ethyl-5-fluoro-N-isopropyl-2-((4-(7-(((2S,5R)-5-((2-methoxyphenyl)sulfonamido)tetrahydro-2H-pyran-2-yl)methyl)-2,7-diazaspiro[3.5]nonan-2-yl)pyrimidin-5-yl)oxy)benzamide] | < 100
CCN(C(=O)c1cc(F)ccc1Oc1cncnc1N1CC2(CCN(C[C@@H]3CC[C@@H](NS(=O)(=O)c4cccc(OC)c4)CO3)CC2)C1)C(C)C [Example 66, N-Ethyl-5-fluoro-N-isopropyl-2-((4-(7-(((2S,5R)-5-((3-methoxyphenyl)sulfonamido)tetrahydro-2H-pyran-2-yl)methyl)-2,7-diazaspiro[3.5]nonan-2-yl)pyrimidin-5-yl)oxy)benzamide] | < 100
CCN(C(=O)c1cc(F)ccc1Oc1cncnc1N1CC2(CCN(C[C@@H]3CC[C@@H](NS(=O)(=O)N4CCC4)CO3)CC2)C1)C(C)C [Example 69, 2-((4-(7-(((2S,5R)-5-(Azetidine-1-sulfonamido)tetrahydro-2H-pyran-2-yl)methyl)-2,7-diazaspiro[3.5]nonan-2-yl)pyrimidin-5-yl)oxy)-N-ethyl-5-fluoro-N-isopropylbenzamide] | < 100
CCN(C(=O)c1cc(F)ccc1Oc1cncnc1N1CC2(CCN(C[C@@H]3CC[C@@H](NS(N)(=O)=O)CO3)CC2)C1)C(C)C [Example 73, N-Ethyl-5-fluoro-N-isopropyl-2-((4-(7-(((2S,5R)-5-(sulfamoylamino)tetrahydro-2H-pyran-2-yl)methyl)-2,7-diazaspiro[3.5]nonan-2-yl)pyrimidin-5-yl)oxy)benzamide] | 100 to 1000
CCN(C(=O)c1cc(F)ccc1Oc1cncnc1N1CC2(CCN(C[C@@H]3CC[C@@H](NS(=O)(=O)NC)CO3)CC2)C1)C(C)C [Example 76, N-Ethyl-5-fluoro-N-isopropyl-2-((4-(7-(((2S,5R)-5-((N-methylsulfamoyl)amino)tetrahydro-2H-pyran-2-yl)methyl)-2,7-diazaspiro[3.5]nonan-2-yl)pyrimidin-5-yl)oxy)benzamide] | < 100
CC(C)N(C(=O)c1cc(F)ccc1Oc1cncnc1N1CC2(CCN(C[C@@H]3CC[C@@H](NS(=O)(=O)N(C)C)CO3)CC2)C1)C(C)C [Example 77, 2-((4-(7-(((2S,5R)-5-((N,N-Dimethylsulfamoyl)amino)tetrahydro-2H-pyran-2-yl)methyl)-2,7-diazaspiro[3.5]nonan-2-yl)pyrimidin-5-yl)oxy)-5-fluoro-N,N-diisopropylbenzamide] | < 100
CC(C)N(C(=O)c1cc(F)ccc1Oc1cncnc1N1CC2(CCN(C[C@@H]3CC[C@@H](NS(=O)(=O)N4CCOCC4)CO3)CC2)C1)C(C)C [Example 78, 5-Fluoro-N,N-diisopropyl-2-((4-(7-(((2S,5R)-5-(morpholine-4-sulfonamido)tetrahydro-2H-pyran-2-yl)methyl)-2,7-diazaspiro[3.5]nonan-2-yl)pyrimidin-5-yl)oxy)benzamide] | < 100
